Test systems include NCI-H522 lung; SK-MEL-2 melanoma; SF-295 CNS; T-47D breast; MOLT-4 leukemia; DLD-1 colon; SW-620 colon; M19-MEL melanoma; HOP-62 NSCLC; A549 NSCLC.
Common to all, as to test: NCI tumour cell line growth inhibition, 48 h

SMILES strings stand for the structures.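 1) Cells in 96-well plates. 2) Compound, 48 h, 5 concentrations. 3) Linear interpolation between surrounding doses. 4) Unreached endpoint = highest concentration. TGI: concentration producing complete growth inhibition.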

Consider `O=C1/C(=C/c2ccccc2)CN(C(=O)CCN2CCCC2)C/C1=C\c1ccccc1`, for which the TGI with NCI-H522 lung is 2.8 µM; with SK-MEL-2 melanoma, 8.41 µM; in the experiment on SF-295 CNS it was 2.6 µM; with T-47D breast, 5.61 µM; in the experiment with MOLT-4 leukemia it was 1.68 µM; in the experiment with DLD-1 colon it was 3.12 µM. In addition, the TGI with SW-620 colon was found to be 0.511 µM; with M19-MEL melanoma, 3.79 µM; in the experiment with HOP-62 NSCLC it was 16 µM; in the experiment with A549 NSCLC, 14.6 µM.

In the case of `O=C1CC(c2[nH]nc3ccccc23)C(=O)N1c1ccccc1` (configuration not stated), the TGI in the experiment on NCI-H522 lung, with SK-MEL-2 melanoma, with SF-295 CNS, in the experiment with T-47D breast, in the experiment with MOLT-4 leukemia and in the experiment with DLD-1 colon was more than 100 µM each time. For the same compound, the TGI in the experiment with SW-620 colon, in the experiment with M19-MEL melanoma, in the experiment with HOP-62 NSCLC and in the experiment on A549 NSCLC was more than 100 µM throughout.

Turning to `COc1ccc(CCc2cc(OC)cc(OC)c2)cc1`, the TGI in the experiment on NCI-H522 lung is more than 41 µM; in the experiment on SK-MEL-2 melanoma, more than 62 µM; in the experiment with SF-295 CNS, more than 100 µM; with MOLT-4 leukemia it was 56.5 µM; with DLD-1 colon, more than 100 µM; with SW-620 colon it was more than 67.3 µM. The TGI in the experiment with M19-MEL melanoma, in the experiment with HOP-62 NSCLC and in the experiment on A549 NSCLC was more than 100 µM in each case.

In the case of `COc1ccc(C(=O)C(CC2C(=O)NC(=O)NC2=O)c2ccc(OC)cc2)cc1` (configuration not stated), the TGI with NCI-H522 lung, in the experiment on SK-MEL-2 melanoma, in the experiment with SF-295 CNS, in the experiment with MOLT-4 leukemia, in the experiment with DLD-1 colon and in the experiment on SW-620 colon was more than 100 µM in each case. The TGI in the experiment on M19-MEL melanoma, with HOP-62 NSCLC and in the experiment on A549 NSCLC was more than 100 µM throughout.

`CC(C)Cc1ccc(C(C)CC2=CCC(CN(C)C)C2=O)cc1` (configuration not stated): the TGI in the experiment on NCI-H522 lung came out at 8.84 µM; with SK-MEL-2 melanoma it was 26.9 µM; in the experiment with SF-295 CNS, 32.1 µM; in the experiment with T-47D breast, 4.7 µM; in the experiment on MOLT-4 leukemia it was 5.8 µM; in the experiment on DLD-1 colon it was 5.61 µM. Also, the TGI in the experiment on SW-620 colon is 4.48 µM; in the experiment on M19-MEL melanoma it was 13.8 µM; in the experiment on HOP-62 NSCLC, 36.4 µM; in the experiment with A549 NSCLC it was 35.2 µM.

For `CCOC(=O)N1CCc2cc(OC)c(OC)cc2/C1=C\c1ccc(OC)c(OC)c1`, the TGI was 77.6 µM in the experiment on NCI-H522 lung; 67.6 µM in the experiment on SK-MEL-2 melanoma; 61.2 µM in the experiment on SF-295 CNS; 91.1 µM in the experiment on MOLT-4 leukemia; more than 100 µM in the experiment on DLD-1 colon; more than 100 µM in the experiment with SW-620 colon. For the same compound, the TGI is 63.3 µM in the experiment on M19-MEL melanoma, more than 100 µM in the experiment on HOP-62 NSCLC and 80.5 µM in the experiment with A549 NSCLC.

For `CCCC(=O)N[C@H]1C2C3CC4C5CC(C42)C1(C)C53` (some centres not stated), the TGI in the experiment on NCI-H522 lung, in the experiment with SK-MEL-2 melanoma, in the experiment with SF-295 CNS, in the experiment on MOLT-4 leukemia, in the experiment on DLD-1 colon and in the experiment on SW-620 colon was more than 100 µM in each case. Moreover, the TGI with M19-MEL melanoma, with HOP-62 NSCLC and in the experiment on A549 NSCLC was more than 100 µM throughout.

Regarding `CC(=O)O[C@]1(C)OC(=O)[C@@H](CC(C)C)N1[N+](=O)[O-]`, the TGI with NCI-H522 lung, in the experiment with SK-MEL-2 melanoma, with SF-295 CNS, in the experiment with MOLT-4 leukemia, in the experiment on DLD-1 colon and with SW-620 colon was more than 100 µM in each case. The TGI in the experiment on M19-MEL melanoma, with HOP-62 NSCLC and in the experiment on A549 NSCLC was more than 100 µM throughout.

For the compound `CC1CCSC(N(C(=O)N(C)c2ccccc2)c2ccccc2)=N1` (configuration not stated), the TGI with NCI-H522 lung, in the experiment on SK-MEL-2 melanoma, in the experiment with SF-295 CNS, with MOLT-4 leukemia, in the experiment on DLD-1 colon and in the experiment on SW-620 colon was more than 100 µM throughout. Besides, the TGI in the experiment with M19-MEL melanoma, in the experiment with HOP-62 NSCLC and in the experiment with A549 NSCLC was more than 100 µM in each case.

For the compound `Cc1c(NC(=S)NC(=O)c2ccc([N+](=O)[O-])cc2)c(=O)n(-c2ccccc2)n1C`, the TGI in the experiment on NCI-H522 lung, with SK-MEL-2 melanoma, in the experiment with SF-295 CNS, with MOLT-4 leukemia, in the experiment with DLD-1 colon and in the experiment on SW-620 colon was more than 100 µM in each case. In addition, the TGI in the experiment with M19-MEL melanoma, in the experiment with HOP-62 NSCLC and in the experiment on A549 NSCLC was more than 100 µM in each case.

In the case of `CCOC(=O)CCn1ncc(Cl)c(Cl)c1=O`, the TGI in the experiment on NCI-H522 lung was 0.834 µM; in the experiment on SK-MEL-2 melanoma it was 26.4 µM; in the experiment on SF-295 CNS, 34.2 µM; in the experiment with MOLT-4 leukemia, 11.7 µM; in the experiment on DLD-1 colon it was 21.5 µM; in the experiment with SW-620 colon, 9.7 µM. The TGI was 8.35 µM with M19-MEL melanoma, 39.8 µM in the experiment on HOP-62 NSCLC and 32.9 µM in the experiment with A549 NSCLC.
